Test results: patent US20070264674A1, “Cytochrome P450 Induction Assay” (priority 2004, published 2007)

Tests used:
[1] = molecular target: T1, hCAR (Homo sapiens, UniProt Q14994); test: Primary rat hepatocytes cotransfected with clone 102-SEAP and hCAR; format: cell-based; set-up: expressed in transfected cells; host or cells: primary rat hepatocytes (transient co-transfection, Effectene); conditions: 10 μM Rifampicin, 1 μM CITCO, 1 mM Phenobarbital, 48 h
T1 sequence (Q14994 1-348 isoform Q14994-2): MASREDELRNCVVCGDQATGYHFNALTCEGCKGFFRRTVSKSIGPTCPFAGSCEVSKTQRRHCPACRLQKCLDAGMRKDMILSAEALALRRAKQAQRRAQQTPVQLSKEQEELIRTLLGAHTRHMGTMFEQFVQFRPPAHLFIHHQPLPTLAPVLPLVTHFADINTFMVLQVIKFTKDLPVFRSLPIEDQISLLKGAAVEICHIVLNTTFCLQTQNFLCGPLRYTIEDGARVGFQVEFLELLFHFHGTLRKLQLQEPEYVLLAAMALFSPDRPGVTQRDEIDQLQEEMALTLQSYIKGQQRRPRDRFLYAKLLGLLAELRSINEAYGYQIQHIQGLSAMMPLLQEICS
Description: (§1) After four hours, cell culture medium was changed with 1 mL Williams E medium containing Pen/Strep, glutamine and ITS+Premix and the cells were incubated overnight under normal growth condition.
(§2) This was followed by adding 3.2 μL Enhancer and mixing by vortexing for 1 second. […] The cotransfections were followed by adding 3.2 μL Enhancer and mixing by vortexing for 1 second. The transfections/cotransfections were incubated at room temperature for 5 minutes. Then, the mixtures were centrifuged for a few seconds to remove drops from the top of the tube. Next, to each of the mixtures, five μL of Effectene Transfection Reagent was added and the mixtures mixed by vortexing for 10 seconds. The mixtures were then incubated for ten minutes at room temperature to allow transfection complex formation.
(§3) Meanwhile, the growth medium for each of the wells of the 24-well plate containing the cells was removed from the wells and the cells in the wells washed once with 1 mL of growth medium. Then, 350 μL of fresh growth medium was added to each of the wells and 350 μL of growth medium was added to each of the tubes of transfection complexes, which were then mixed and immediately added drop-wise onto the cells in the well. The plates were gently swirled to ensure uniform distribution of the transfection complexes over the cells. […]

[2] = molecular target: T1, hCAR; test: SEAP reporter assay in HepG2 cells co-transfected with human CAR; format: cell-based; set-up: A 1047 bp nucleic acid encoding the human CAR (hCAR) obtained from the RT-PCR; expressed in transfected cells; host or cells: HepG2 (transient co-transfection with the reporter plasmid); conditions: HepG2 + human CAR (constitutive activation); 48 h; 200 μM Omeprazole, 6 μM Clotrimazole, 125 nM Hyperforin, 12.5 μM Lovastatin, 100 μM N-propyl-p-hydroxy-benzoate
Description: The NR donor plasmid encoding the human CAR was made as follows. The human CAR was made by RT-PCR from a human liver mRNA preparation. […] The RT-PCR conditions were 15 seconds at 94° C., 30 cycles of 94° C. for 30 seconds followed by 68° C. for 3 minutes, then 68° C. for 3 minutes, and storage at 4° C.
Controls omitted the DNA encoding the human CAR. Additional controls consisted of DNA encoding the human PXR of the previous example.
After incubating the cells 48 hours at 37° C., the medium form wells were collected for SEAP assays. The assays for SEAP expression were performed with Tropix Phospha-Light system kit.

[3] = molecular target: T2, hPXR (Homo sapiens, UniProt O75469); test: Primary rat hepatocytes cotransfected with clone 102-SEAP and hPXR; conditions: 10 μM Rifampicin, 1 μM CITCO, 1 mM Phenobarbital, 48 h
T2 sequence (O75469 1-434): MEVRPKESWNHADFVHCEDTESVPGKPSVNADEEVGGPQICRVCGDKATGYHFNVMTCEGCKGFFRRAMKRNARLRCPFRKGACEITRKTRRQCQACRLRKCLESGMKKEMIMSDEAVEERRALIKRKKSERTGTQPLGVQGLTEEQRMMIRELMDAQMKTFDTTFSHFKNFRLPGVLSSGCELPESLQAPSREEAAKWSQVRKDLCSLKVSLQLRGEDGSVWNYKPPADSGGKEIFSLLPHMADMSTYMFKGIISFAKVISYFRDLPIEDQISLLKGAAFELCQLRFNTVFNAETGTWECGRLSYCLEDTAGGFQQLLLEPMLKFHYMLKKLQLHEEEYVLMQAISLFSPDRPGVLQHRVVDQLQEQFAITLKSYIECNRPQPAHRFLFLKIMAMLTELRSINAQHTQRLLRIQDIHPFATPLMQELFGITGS
Description: as §1, §2, §3

[4] = system: endogenous rat CAR or PXR; test: Primary rat hepatocytes transfected with clone 102-SEAP and pUC19 (control, no nuclear receptor); conditions: clone 102-SEAP + pUC19, 10 μM Rifampicin, 1 μM CITCO, 1 mM Phenobarbital, 48 h
Description: as §1, §2, §3

SMILES	effect on transcription from clone 102-SEAP composite promoter [2]	effect on transcription from ΔCYP3A4 promoter [2]	also measured
Clc1ccc(-c2nc3sccn3c2C=NOCc2ccc(Cl)c(Cl)c2)cc1 [CITCO, 6-(4-Chlorophenyl)imidazo[2,1-b][1,3]thiazole-5-carbaldehyde O-(3,4-dichlorobenzyl)oxime]			induction of clone 102-SEAP expression via hCAR [1]: about 4.2 fold
Clc1ccccc1C(c1ccccc1)(c1ccccc1)n1ccnc1 [Clotrimazole]	inhibitory effect	inhibitory effect	
CC[C@H](C)C(=O)O[C@H]1C[C@@H](C)C=C2C=C[C@H](C)[C@H](CC[C@@H]3C[C@@H](O)CC(=O)O3)[C@H]21 [Lovastatin]	not affected		
CCCOC(=O)c1ccc(O)cc1 [N-propyl-p-hydroxy-benzoate]	not affected	moderate inhibition	
CCC1(c2ccccc2)C(=O)NC(=O)NC1=O [Phenobarbital]			induction of clone 102-SEAP expression via hPXR [3]: about 3.4 fold; induction of clone 102-SEAP without co-transfected nuclear receptor [4]: no response
